Laboratory results: ChEMBL document CHEMBL1141893, “5-Lipoxygenase inhibition by N-hydroxycarbamates in dual-function compounds” (Bioorg Med Chem Lett, 2005)

How the values were obtained:
Histamine H1 receptor = Histamine H1 receptor (Homo sapiens, UniProt P35367); test: Binding affinity for human Histamine H1 receptor in CHO K1 cells; type: cell-based
[1] = target: T1, Polyunsaturated fatty acid 5-lipoxygenase (Homo sapiens, UniProt P09917); test: Inhibitory concentration against human 5-lipoxygenase
T1 sequence (P09917 whole entry): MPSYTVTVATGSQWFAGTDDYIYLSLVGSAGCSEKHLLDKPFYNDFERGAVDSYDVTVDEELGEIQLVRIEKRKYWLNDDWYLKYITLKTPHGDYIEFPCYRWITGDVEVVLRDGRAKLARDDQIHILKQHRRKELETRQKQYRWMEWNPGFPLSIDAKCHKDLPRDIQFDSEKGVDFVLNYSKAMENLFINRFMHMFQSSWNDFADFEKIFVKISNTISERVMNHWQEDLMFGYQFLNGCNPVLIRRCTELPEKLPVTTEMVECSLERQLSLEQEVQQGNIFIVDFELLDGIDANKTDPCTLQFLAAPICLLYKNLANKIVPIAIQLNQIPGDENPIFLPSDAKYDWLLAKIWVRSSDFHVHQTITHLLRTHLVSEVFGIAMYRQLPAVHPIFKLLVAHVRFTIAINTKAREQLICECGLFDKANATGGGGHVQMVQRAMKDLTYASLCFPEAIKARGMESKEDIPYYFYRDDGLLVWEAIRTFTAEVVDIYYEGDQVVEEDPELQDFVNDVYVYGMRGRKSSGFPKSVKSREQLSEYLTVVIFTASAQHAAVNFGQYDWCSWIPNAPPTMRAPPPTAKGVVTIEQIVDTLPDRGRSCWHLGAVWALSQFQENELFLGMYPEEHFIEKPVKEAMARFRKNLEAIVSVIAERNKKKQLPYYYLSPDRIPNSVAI

[2] = target: T1, Polyunsaturated fatty acid 5-lipoxygenase; test: Inhibitory concentration against 5-lipoxygenase in human whole blood; type: functional, tissue-based

Chain of Histamine H1 receptor (P35367 whole entry): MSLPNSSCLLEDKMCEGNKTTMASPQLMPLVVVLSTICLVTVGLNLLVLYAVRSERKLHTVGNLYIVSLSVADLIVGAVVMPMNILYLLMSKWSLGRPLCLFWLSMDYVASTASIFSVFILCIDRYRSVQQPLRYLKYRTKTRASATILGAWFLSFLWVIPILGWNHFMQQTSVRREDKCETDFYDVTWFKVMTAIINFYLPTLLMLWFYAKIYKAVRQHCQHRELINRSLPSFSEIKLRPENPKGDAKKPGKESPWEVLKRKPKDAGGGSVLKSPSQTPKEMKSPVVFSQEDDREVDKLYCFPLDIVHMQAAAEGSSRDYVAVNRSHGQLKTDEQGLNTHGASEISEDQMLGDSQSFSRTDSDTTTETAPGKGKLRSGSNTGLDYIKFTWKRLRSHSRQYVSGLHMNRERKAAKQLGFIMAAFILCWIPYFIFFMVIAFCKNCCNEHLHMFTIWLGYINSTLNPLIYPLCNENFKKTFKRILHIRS

Ki (Histamine H1 receptor) [nM]	IC50 [1] [nM]	IC50 [2] [nM]	Compound
9.55	335	102	CC(C)OC(=O)N(O)CCC#Cc1ccc(OCCCCN2CCN(C(c3ccc(F)cc3)c3ccc(F)cc3)CC2)cc1
17.8	350	150	O=C(OCc1ccccc1)N(O)CCC#Cc1ccc(OCCCCN2CCN(C(c3ccc(F)cc3)c3ccc(F)cc3)CC2)cc1
5.01	170	90	COC(=O)N(O)CCC#Cc1ccc(OCCCCN2CCN(C(c3ccc(F)cc3)c3ccc(F)cc3)CC2)cc1
7.59	420	176	CC(C)COC(=O)N(O)CCC#Cc1ccc(OCCCCN2CCN(C(c3ccc(F)cc3)c3ccc(F)cc3)CC2)cc1
5.89	365	72	CCOC(=O)N(O)CCC#Cc1ccc(OCCCCN2CCN(C(c3ccc(F)cc3)c3ccc(F)cc3)CC2)cc1
	193		NC(=O)N(O)CCC#Cc1ccc(OCCCCN2CCN(C(c3ccc(F)cc3)c3ccc(F)cc3)CC2)cc1
